These are literature values, as cited in patent publication US20240374519A1, “COMPOSITIONS FOR SUPPLEMENTING PRODUCTS WITH THERAPEUTIC AGENTS AND METHODS OF USE THEREOF” (DISRUPTION LABS, INC., priority 2021, published 2024).

Regarding `C=C(C)[C@@H]1CCC(C)=C[C@H]1c1c(O)cc(CCCCC)cc1O` [Cannabidiol], the lipophilicity (log P) is above 5.
